ChEMBL document CHEMBL3243954 (J Med Chem, 1979)

Columns and labels:
[1] = Retardation factor, Rm of the compound by thin-layer chromatography; format: physicochemical
[2] = system: Brain; test: Drug uptake albino mouse brain at 15 mg equivalent of oxazepam/kg, iv after 1 mins measured per gm of tissue by thin-layer chromatography; format: ADME, organism-based; details: in vivo
[3] = system: Brain; test: Drug uptake albino mouse brain at 15 mg equivalent of oxazepam/kg, iv after 3 mins measured per gm of tissue by thin-layer chromatography; format: ADME, organism-based; details: in vivo, 0.05 h
[4] = system: Brain; test: Drug uptake albino mouse brain at 15 mg equivalent of oxazepam/kg, iv after 12 mins measured per gm of tissue by thin-layer chromatography; format: ADME, organism-based; details: in vivo, 0.2 h
[5] = system: Brain; test: Drug uptake albino mouse brain at 15 mg equivalent of oxazepam/kg, iv after 20 mins measured per gm of tissue by thin-layer chromatography; format: ADME, organism-based; details: in vivo
[6] = system: Brain; test: Drug uptake albino mouse brain at 15 mg equivalent of oxazepam/kg, iv after 40 mins measured per gm of tissue by thin-layer chromatography; format: ADME, organism-based; details: in vivo
[7] = system: Brain; test: Drug uptake albino mouse brain at 15 mg equivalent of oxazepam/kg, iv after 90 mins measured per gm of tissue by thin-layer chromatography; format: ADME, organism-based; details: in vivo, 1.5 h
[8] = system: Brain; test: Drug uptake albino mouse brain at 15 mg equivalent of oxazepam/kg, iv after 180 mins measured per gm of tissue by thin-layer chromatography; format: ADME, organism-based; details: in vivo, 3 h
[9] = system: Brain; test: Drug uptake albino mouse brain at 5 mg equivalent of oxazepam/kg, iv after 5 mins measured per gm of tissue by thin-layer chromatography; format: ADME, organism-based; details: in vivo
[10] = system: Brain; test: Drug uptake albino mouse brain at 5 mg equivalent of oxazepam/kg, iv after 10 mins measured per gm of tissue by thin-layer chromatography; format: ADME, organism-based; details: in vivo
[11] = system: Brain; test: Drug uptake albino mouse brain at 5 mg equivalent of oxazepam/kg, iv after 20 mins measured per gm of tissue by thin-layer chromatography; format: ADME, organism-based; details: in vivo
[12] = system: Brain; test: Drug uptake albino mouse brain at 5 mg equivalent of oxazepam/kg, iv after 40 mins measured per gm of tissue by thin-layer chromatography; format: ADME, organism-based; details: in vivo
[13] = system: Brain; test: Drug uptake albino mouse brain at 5 mg equivalent of oxazepam/kg, iv after 60 mins measured per gm of tissue by thin-layer chromatography; format: ADME, organism-based; details: in vivo, 1 h
[14] = system: Brain; test: Drug uptake albino mouse brain at 5 mg equivalent of oxazepam/kg, iv after 120 mins measured per gm of tissue by thin-layer chromatography; format: ADME, organism-based; details: in vivo, 2 h
[15] = system: Brain; test: Drug uptake albino mouse brain at 5 mg equivalent of oxazepam/kg, iv after 240 mins measured per gm of tissue by thin-layer chromatography; format: ADME, organism-based; details: in vivo, 4 h
[16] = system: Brain; test: Drug uptake albino mouse brain at 5 mg equivalent of oxazepam/kg, iv after 2 mins measured per gm of tissue by thin-layer chromatography; format: ADME, organism-based; details: in vivo
[17] = system: Brain; test: Drug uptake albino mouse brain at 5 mg equivalent of oxazepam/kg, iv after 6 mins measured per gm of tissue by thin-layer chromatography; format: ADME, organism-based; details: in vivo, 0.1 h
[18] = system: Brain; test: Drug uptake albino mouse brain at 5 mg equivalent of oxazepam/kg, iv after 30 mins measured per gm of tissue by thin-layer chromatography; format: ADME, organism-based; details: in vivo, 0.5 h
[19] = system: Brain; test: Drug uptake albino mouse brain at 5 mg equivalent of oxazepam/kg, iv after 1 min measured per gm of tissue by thin-layer chromatography; format: ADME, organism-based; details: in vivo

Structure (SMILES) | Rm [1] | Drug uptake [2] | Drug uptake [3] | Drug uptake [4] | Drug uptake [5] | Drug uptake [6] | Drug uptake [7] | Drug uptake [8] | Drug uptake [9] | Drug uptake [10] | Drug uptake [11] | Drug uptake [12] | Drug uptake [13] | Drug uptake [14] | Drug uptake [15] | Drug uptake [16] | Drug uptake [17] | Drug uptake [18] | Drug uptake [19]
CCCC(=O)OC1N=C(c2ccccc2)c2cc(Cl)ccc2N[14C]1=O (configuration not stated) | 0.17 | 16.6 nmol | 17.3 nmol | 19 nmol | 25.9 nmol | 32 nmol | 38.2 nmol | 22.6 nmol |  |  |  |  |  |  |  |  |  |  | 
CC(C)C(=O)OC1N=C(c2ccccc2)c2cc(Cl)ccc2N[14C]1=O (configuration not stated) | 0.12 |  |  |  |  |  |  |  | 5.7 nmol | 8.9 nmol | 9.3 nmol | 11.6 nmol | 10.8 nmol | 5.9 nmol | 3.8 nmol | 3.1 nmol |  |  | 
COC(=O)CCC(=O)OC1N=C(c2ccccc2)c2cc(Cl)ccc2N[14C]1=O (configuration not stated) | -0.03 |  |  |  |  |  |  |  |  |  |  |  | 9.8 nmol |  |  |  | 3.8 nmol | 10.8 nmol | 0.8 nmol
